Patent EP4670717A1, “PYRROLIDINE-FUSED MYRTANOL DERIVATIVES AS INHIBITORS AND/OR DEGRADERS OF IDO1 UND USE THEREOF” (Max-Planck-Gesellschaft zur Förderung der Wissenschaften …, priority 2024, dated 2025)
“Also recorded” adds a separate entry of the source. Read-outs that look alike come from different tables or passages of the source.

Experiments:
[1] = target: T1, IDO1 (Homo sapiens, UniProt P14902); experiment: IDO1 degradation in BxPC3 cells, IDO1 protein levels by immunoblotting; type: cell-based; conditions: for Dmax at 0.1 µM: BXPC-3, BxPC3 cells; for Dmax at 0.1 µM / Dmax [%] (n): 50 ng/ml IFN-γ 24 h, washout, compound (100 nM) 24 h, maximum IDO1 degradation at 0.1 µM;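 for all read-outs here: IDO1 bands on Western blots detected with fluorescent dye-labelled secondary antibodies and quantified by band intensity, values are means of n biological replicates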
T1 construct: BxPC3 cells were seeded in phenol red-free RPMI 1640 medium; endogenous in cells; host or cells: BxPC3 cells stimulated with IFN-γ (50 ng/mL)
Description: To analyze IDO1 levels, IFN-γ-stimulated BxPC3 cells (50 ng/mL IFN-γ), U2OS cells (5 ng/mL IFN-γ), HEK^rhIDO1 (HEK293T cells electroporated with rhIDO1), SKOV3 and BT549 cells were treated with compounds for the indicated times (6 h to 24 h) followed by cell lysis (150 mM sodium chloride in 50 mM Tris (pH 8.0) and 1% NP-40 Alternative, protease and phosphatase inhibitors). Protein concentrations were determined (DC protein assay, Bio-Rad) followed by addition of 1 × SDS loading buffer and protein separation by a 10% SDS-PAGE. Separated protein samples were transferred to a polyvinylidene difluoride (PVDF) membrane using a wet-tank blotting system (Bio-Rad). IDO1 as well as vinculin as a loading were detected using the primary antibodies anti-IDO1 (ab211017, abcam or 14-9750-80, Thermo Fisher), anti-vinculin (V9131, Thermo Fisher) and anti-β-actin (ab8227, abcam) in 5 % milk in PBS-buffered saline with 0.05 % (v/v) Tween-20 (PBS-T). Primary antibodies were incubated at 4°C overnight and detected with IRDye-conjugated secondary antibodies (LI-COR Biosciences). IDO1 protein level in BT549 and SKOV3 cells was detected with HRP conjugated secondary antibody and SuperSignal™ West Dura Extended Duration Substrat (Thermo Fisher Scientific). Washing steps were performed with PBS-T. Protein bands were visualized by ChemiDoc™ MP (Bio-Rad) using a fluorescent readout. Band intensities were quantified using Image Lab software.
In order to differentiate between these different activities, we explored the modes of action of selected compounds in an in vitro assay employing recombinant human IDO1 (rhIDO1) monitoring enzymatic activity only, and we characterized the degradation efficiency by means of Western blotting, determining maximum degradation levels at 0.1µM (Dmax) and half maximum degradation concentration (DC50) (Table B-2). […] Data are mean values of n biological replicates. Dmax corresponds to maximum levels of IDO1 degradation at 0.1 µM.

[2] = target: T1, IDO1; experiment: Kyn assay in BxPC-3 cells (Kyn levels after IFN-γ and Trp); type: cell-based; conditions: for activity in the cell-based kynurenine assay: result in words;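 for all read-outs here: kyn levels expressed relative to DMSO-treated control cells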
Description: BxPC3 cells were seeded in phenol red-free RPMI 1640 medium in 1536-well or 384-well plates (Greiner #782086, Corning #3770) 24 h prior to the addition of compounds, IFN-γ (50 ng/mL, PeproTech) and L-Trp (380 µM, Sigmal-Aldrich). After 48 h of incubation, first cell viability was accessed by the addition of Hoechst-33342. Afterwards, trichloroacetic acid (TCA, Sigma-Aldrich) was added to a final concentration of 7 % and incubated for 10 min prior to a centrifugation step of 10 min at 1620 × g. Kyn levels were determined by means of the Kyn sensor^7 at a final concentration of 17.5 µM in sensor buffer (50 mM H3PO4 and 120 mM NaCl (pH=1)). Fluorescence intensity (excitation: 535 nm, emission: 595 nm) was measured using a Spectramax Paradigm reader (Molecular Devices). Data were normalized to the values for cells that were treated with DMSO.
For the manual assay, BxPC3 or SKOV3 cells were seeded in clear 96-well or 384-well plates, respectively, 24 h prior to compound treatment and IFN-γ (50 or 5 ng/mL, respectively) and L-Trp (380 µM) addition as described before.^7 48 h after treatment, TCA was added and Kyn levels were detected by means of 2 % w/v of p-DMAB (Ehrlich reagent) in acetic acid as described by Braun et al^29. The absorbance of the Ehrlich reagent was detected at 492 nm and at 650 nm as background control was measured on Spark® multimode microplate plate reader (Tecan, Austria). Kyn levels were determined by subtracting the absorbance value at 650 nm and presented relative to the DMSO control. Dose-response curves and IC50 values were generated and fitted with GraphPad Prism 6.0 (GraphPad software, USA) using four-parameter variable slope non-linear regression curve fit.
Cells were incubated with IFN-γ, Trp and the compounds for 48 h prior to detection of Kyn levels.

[3] = target: T2, recombinant human IDO1 (rhIDO1) (Homo sapiens, UniProt P14902); experiment: IDO1 enzymatic assay with recombinant protein, Kyn detection with p-DMAB; type: biochemical; conditions: pre-incubated with compounds at 37°C for 40 min; for IC50: determined if inhibition at 59 µM was higher than 50%, read-out: rhIDO1 enzymatic activity IC50 ± SD
T2 construct: Full-length rhIDO protein (1 µM) in 50 mM potassium phosphate buffer; GST (cleaved yes); made in house; host or cells: E. coli
Excerpt: Reduction of the kynurenine level in the cell-based model employed for initial SAR exploration can be due to inhibition of enzymatic activity, degradation of IDO1, or both (Table B-2). In order to differentiate between these different activities, we explored the modes of action of selected compounds in an in vitro assay employing recombinant human IDO1 (rhIDO1) monitoring enzymatic activity only, and we characterized the degradation efficiency by means of Western blotting, determining maximum degradation levels at 0.1µM (Dmax) and half maximum degradation concentration (DC50) (Table B-2). Table B-2 in vitro inhibition and degradation of IDO1 by selected compounds. […] Data are mean values ± SD (n = 4, except for compounds 1, 11, and 19 (n=2)). […] Data are mean values of n biological replicates. Dmax corresponds to maximum levels of IDO1 degradation at 0.1 µM.
Full-length rhIDO protein (1 µM) in 50 mM potassium phosphate buffer (50 mM KH2PO4 and 50 mM K2HPO4, pH 6.5) was incubated with the respective compounds for 40 min at 37 °C prior to the addition of 10 mM ascorbic acid, 10 µM methylene blue, 2 mM Trp and 100 µg/mL catalase (Sigma-Aldrich, C100). Samples were incubated for 60 min followed by the addition of trichloroacetic acid to a final concentration of 7 % and further incubation for 30 min at 37 °C. Kyn levels were detected by the addition of an equal volume of 2 % (w/v) p-DMAB in acetic acid and absorbance was measured at 492 nm and 650 nm as a background control. Values are presented relative to the DMSO control. Dose-response curves and IC50 values were generated and fitted with GraphPad Prism 6.0 (GraphPad software, USA) using four-parameter variable slope non-linear regression curve fit.

[4] = target: T3, apo-IDO1 (Homo sapiens, UniProt P14902); experiment: Pulse-chase ubiquitination assay of apo-IDO1 by CRL2^KLHDC3; type: biochemical; conditions: apo-IDO1 incubated with compounds (30 µM) for 90 min at 37°C; Fig. 3j
T3 construct: For the ubiquitination assays, IDO1 (residues 5-C) was cloned into a pRSF Duet based vector; His-TEV (N); made in house; host or cells: IDO1: host not restated ('purified as described above', which points to E. coli); KLHDC3-EloB/C: Hi5 insect cells

[5] = BxPC-3 cells incubated with IFN-γ, Trp and the compounds for 48 h, read-out: Kyn assay IC50 ± SD

T1 sequence (P14902 whole entry): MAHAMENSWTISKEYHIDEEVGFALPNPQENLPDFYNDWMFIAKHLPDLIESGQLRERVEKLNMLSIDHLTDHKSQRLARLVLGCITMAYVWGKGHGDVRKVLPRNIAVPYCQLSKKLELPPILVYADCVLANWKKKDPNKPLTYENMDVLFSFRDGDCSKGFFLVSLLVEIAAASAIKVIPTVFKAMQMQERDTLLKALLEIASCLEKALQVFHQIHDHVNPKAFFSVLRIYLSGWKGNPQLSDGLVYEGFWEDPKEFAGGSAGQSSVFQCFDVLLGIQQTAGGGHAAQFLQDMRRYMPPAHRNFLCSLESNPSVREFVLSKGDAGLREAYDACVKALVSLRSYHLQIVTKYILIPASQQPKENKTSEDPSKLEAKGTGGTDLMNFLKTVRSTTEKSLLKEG
T2 sequence (P14902 whole entry): as above
T3 sequence (P14902 5-403 limits assumed): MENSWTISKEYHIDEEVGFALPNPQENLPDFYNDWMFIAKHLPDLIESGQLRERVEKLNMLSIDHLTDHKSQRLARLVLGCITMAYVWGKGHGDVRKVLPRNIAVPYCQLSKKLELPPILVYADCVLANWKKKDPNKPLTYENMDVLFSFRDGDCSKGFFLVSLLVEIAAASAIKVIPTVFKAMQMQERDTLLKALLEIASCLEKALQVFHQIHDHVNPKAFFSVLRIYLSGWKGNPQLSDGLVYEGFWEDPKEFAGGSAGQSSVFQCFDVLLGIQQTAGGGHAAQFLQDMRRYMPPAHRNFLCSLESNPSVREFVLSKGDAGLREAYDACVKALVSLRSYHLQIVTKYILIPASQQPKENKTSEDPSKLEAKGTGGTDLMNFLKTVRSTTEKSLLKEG

Structure (SMILES) | Dmax at 0.1 µM [1] [%] | Dmax [%] (n) ([1]; BxPC3 cells) | IC50 [2, 5] [nM] | activity in the cell-based kynurenine assay [2] | inhibition at 59 µM ([3]; in vitro inhibition at 59 uM) [%] | IC50 [3] [nM] | fold more potent in the Kyn assay than compound 1 ([2]; relative to compound 1) [fold] | rhIDO1 enzymatic activity Inhibition [%] ([3]; in vitro inhibition at 59 uM) | IDO1 ubiquitination by CRL2^KLHDC3 [4] | DC50 ± SD [nM] ([1]; half-maximal degradation concentration, BxPC3 cells, immunoblotting) | IC50 ([2]; read-out: IC50 value in the Kyn assay, Kyn assay) [nM] | IC50 ([2]; read-out: Kyn assay IC50 ± SD, BxPC-3 cells incubated with IFN-γ, Trp and the compounds for 48 h) [nM]
Cc1cc(C(C)(C)C)ccc1S(=O)(=O)N1C[C@H]2C[C@H]3C[C@H](C3(C)C)[C@@]2(COC(=O)Nc2ccc(I)cc2)C1 [compound 52, ((3aS,4R,6R,7aS)-2-((4-(tert-butyl)-2-methylphenyl)sulfonyl)-5,5-dimethyloctahydro-3aH-4,6-methanoisoindol-3a-yl)methyl (4-iodophenyl)carbamate] | > 60 | 65 ± 10(14) % | < 200 | low nanomolar range | 48 ± 6 | – | – | – | – | – | – | –
CC(C)(CC(=O)O)c1ccc(S(=O)(=O)N2C[C@H]3C[C@H]4C[C@H](C4(C)C)[C@@]3(COC(=O)Nc3ccc(I)cc3)C2)cc1 [compound 63, 3-(4-(((3aS,4R,6R,7aS)-3a-((((4-iodophenyl)carbamoyl)oxy)methyl)-5,5-dimethyloctahydro-2H-4,6-methanoisoindol-2-yl)sulfonyl)phenyl)-3-methylbutanoic acid] | 36 to 46 | 36 ± 2 (3) % | < 200 | – | 67 ± 6 | 1900 ± 500 | – | – | – | – | – | –
C#Cc1ccc(NC(=O)OC[C@]23CN(S(=O)(=O)c4ccc(C(C)(C)C)cc4)C[C@H]2C[C@H]2C[C@@H]3C2(C)C)cc1 [compound 19] | > 60 | 62 ± 10 (5) % | < 200 | low nanomolar range | 49 ± 0.6 | – | – | – | – | – | – | –
CC(C)(C)c1ccc(S(=O)(=O)N2C[C@H]3C[C@H]4C[C@H](C4(C)C)[C@@]3(COC(=O)Nc3ccc(I)cc3)C2)c(C2CC2)c1 [compound 54, ((3aS,4R,6R,7aS)-2-((4-(tert-butyl)-2-cyclopropylphenyl)sulfonyl)-5,5-dimethyl-octahydro-3aH-4,6-methanoisoindol-3a-yl)methyl (4-iodophenyl)carbamate] | 55 to 59 | 55 ± 4 (3) % | < 200 | – | 35 ± 2 | – | – | – | – | – | – | –
CC(C)(C(=O)O)c1ccc(S(=O)(=O)N2C[C@H]3C[C@H]4C[C@H](C4(C)C)[C@@]3(COC(=O)Nc3ccc(I)cc3)C2)cc1 [compound 65, 2-(4-(((3aS,4R,6R,7aS)-3a-((((4-iodophenyl)carbamoyl)oxy)methyl)-5,5-dimethyloctahydro-2H-4,6-methanoisoindol-2-yl)sulfonyl)phenyl)-2-methylpropanoic acid] | 36 to 46 | 46 ± 21 (5) % | < 200 | low nanomolar range | 72 ± 4 | 820 ± 140 | – | – | – | – | – | –
CC(C)(C)c1ccc(S(=O)(=O)N2C[C@H]3C[C@H]4C[C@H](C4(C)C)[C@@]3(COC(=O)Nc3ccc(I)cc3)C2)cc1 [compound 11, ((3aS,4R,6R,7aS)-2-((4-(tert-butyl)phenyl)sulfonyl)-5,5-dimethyloctahydro-3aH-4,6-methanoisoindol-3a-yl)methyl (4-iodophenyl)carbamate] | 37 | – | < 200 | low nanomolar range | – | – | 7 | not active; also recorded: inactive | – | – | – | –
CC(C)(C)c1ccc(S(=O)(=O)N2C[C@H]3C[C@H]4C[C@H](C4(C)C)[C@@]3(COC(=O)Nc3ccc(I)cc3)C2)c(Br)c1 [compound 56, ((3aS,4R,6R,7aS)-2-((2-bromo-4-(tert-butyl)phenyl)sulfonyl)-5,5-dimethyloctahydro-3aH-4,6-methanoisoindol-3a-yl)methyl (4-iodophenyl)carbamate] | 55 to 59 | 56 ± 4 (3) % | < 200 | – | 12 ± 7 | – | – | – | – | – | – | –
Cc1cc(C(C)(C)C(=O)O)ccc1S(=O)(=O)N1C[C@H]2C[C@H]3C[C@H](C3(C)C)[C@@]2(COC(=O)Nc2ccc(I)cc2)C1 [compound 70, 2-(4-(((3aS,4R,6R,7aS)-3a-((((4-iodophenyl)carbamoyl)oxy)methyl)-5,5-dimethyloctahydro-2H-4,6-methanoisoindol-2-yl)sulfonyl)-3-methylphenyl)-2-methylpropanoic acid] | 18 ± 19 | – | < 200 | – | 62 ± 1 | 110 ± 20 | – | – | – | – | – | –
C#Cc1ccc(NC(=O)OC[C@]23CN(S(=O)(=O)c4ccc(C(C)(C)C)cc4C)C[C@H]2C[C@H]2C[C@@H]3C2(C)C)cc1 [compound 71, ((3aS,4R,6R,7aS)-2-((4-(tert-butyl)-2-methylphenyl)sulfonyl)-5,5-dimethylocta-hydro-3aH-4,6-methanoisoindol-3a-yl)methyl (4-ethynylphenyl)carbamate] | 74 ± 13 | – | – | – | 30 ± 5 | – | – | – | ubiquitinated | – | – | –
C#Cc1ccc(NC(=O)OC[C@]23CN(S(=O)(=O)c4ccc(C(C)(C)C(=O)O)cc4)C[C@H]2C[C@H]2C[C@@H]3C2(C)C)cc1 [compound 74, 2-(4-(((3aS,4R,6R,7aS)-3a-((((4-ethynylphenyl)carbamoyl)oxy)methyl)-5,5-dimethyloctahydro-2H-4,6-methanoisoindol-2-yl)sulfonyl)phenyl)-2-methylpropanoic acid] | 54 ± 8 | – | < 200 | low nanomolar range | 78 ± 3 | 310 ± 60 | – | – | – | – | – | –
C#Cc1ccc(NC(=O)OC[C@]23CN(S(=O)(=O)c4ccc(C(C)(C)C)cc4CC)C[C@H]2C[C@H]2C[C@@H]3C2(C)C)cc1 [compound 72, ((3aS,4R,6R,7aS)-2-((4-(tert-butyl)-2-ethylphenyl)sulfonyl)-5,5-dimethylocta-hydro-3aH-4,6-methanoisoindol-3a-yl)methyl(4-ethynylphenyl) carbamate] | – | 75% | – | – | 62 ± 5 | – | – | – | – | low nanomolar range | 11 | < 200
